Assay results as given in patent US20210045385A1, “PYRIDAZINONE-SUBSTITUTED KETOXIMES AS HERBICIDES” (FMC Corporation, priority 2018, published 2021).

How the values were obtained:
Type in all cases: in vivo
[1] = tested on: Italian ryegrass (Lolium multiflorum); assay: Test A preemergence, visual plant response rating; conditions: for Ryegrass, Italian plant response rating (0 to 100 scale): approx. 10 days; for Ryegrass, Italian plant response rating: 125 g ai/ha, preemergence, 0 to 100 scale, 0 no effect, 100 complete control
Procedure, shortened: (§1)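 Greenhouse evaluation, approx. 10 days post-spray. Soil: loam + sand. Postemergence stage: 1–2 leaves, height 2–10 cm. Vehicle: non-phytotoxic solvent blend with surfactant. Score: visual injury on a 0 (no effect) to 100 (complete control) scale.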

kochia (Kochia scoparia) [2] = assay: Test A preemergence, visual plant response rating; conditions: for Kochia plant response rating (0 to 100 scale): approx. 10 days; for Kochia plant response rating: 125 g ai/ha, preemergence, 0 to 100 scale, 0 no effect, 100 complete control
Procedure, shortened: as §1

[3] = tested on: ragweed (common ragweed, Ambrosia elatior); assay: Test A preemergence, visual plant response rating; conditions: for Ragweed plant response rating (0 to 100 scale): approx. 10 days; for Ragweed plant response rating: 125 g ai/ha, preemergence, 0 to 100 scale, 0 no effect, 100 complete control
Procedure, shortened: as §1

[4] = tested on: barnyardgrass (Echinochloa crus-galli); assay: Test A preemergence, visual plant response rating; conditions: for Barnyardgrass plant response rating (0 to 100 scale): approx. 10 days; for Barnyardgrass plant response rating: 125 g ai/ha, preemergence, 0 to 100 scale, 0 no effect, 100 complete control
Procedure, shortened: as §1

[5] = tested on: foxtail, giant (giant foxtail, Setaria faberii); assay: Test A preemergence, visual plant response rating; conditions: for Foxtail, Giant plant response rating (0 to 100 scale): approx. 10 days; for Foxtail, Giant plant response rating: 125 g ai/ha, preemergence, 0 to 100 scale, 0 no effect, 100 complete control
Procedure, shortened: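 Preemergence: seeds in loam/sand blend given directed soil spray of compound in non-phytotoxic solvent with surfactant. Postemergence: plants 2–10 cm, one- to two-leaf stage, sprayed with same formulation. Visual injury rated vs untreated controls after ~10 days in greenhouse, 0 (no effect) to 100 (complete control).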

[6] = tested on: pigweed (Amaranthus retroflexus); assay: Test A preemergence, visual plant response rating; conditions: for Pigweed plant response rating (0 to 100 scale): approx. 10 days; for Pigweed plant response rating: 125 g ai/ha, preemergence, 0 to 100 scale, 0 no effect, 100 complete control
Procedure, shortened: as §1

[7] = tested on: ducksalad (Heteranhera limosa); assay: Test B flooded paddy test, visual plant response rating; conditions: 250 g ai/ha, Flood, applied to paddy water, 2-leaf stage, evaluated after 13 to 15 days
Procedure, shortened: (§2)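 Plants were raised to the 2-leaf stage, then pots were flooded to 3 cm above the soil and test compound was applied directly into the paddy water. Water depth was held for the whole test; after 13 to 15 days in a greenhouse, responses were scored visually against controls.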

[8] = tested on: sedge, umbrella (small-flower umbrella sedge, Cyperus difformis); assay: as above; conditions: 250 g ai/ha, Flood, applied to paddy water, 2-leaf stage, evaluated after 13 to 15 days
Procedure, shortened: as §2

rice (Oryza sativa) = assay: as above; conditions: 250 g ai/ha, Flood, applied to paddy water, 2-leaf stage, evaluated after 13 to 15 days
Procedure, shortened: as §2

[9] = tested on: barnyardgrass (Echinochloa crus-galli); assay: as above; conditions: 250 g ai/ha, Flood, applied to paddy water, 2-leaf stage, evaluated after 13 to 15 days
Procedure, shortened: as §2

[10] = tested on: Italian ryegrass (Lolium multiflorum); assay: Test A postemergence, visual plant response rating; conditions: for Ryegrass, Italian plant response rating (0 to 100 scale): 500 g ai/ha, postemergence, 0 is no effect, 100 is complete control; for Ryegrass, Italian plant response rating: Postemergence, 125 g ai/ha, 0 to 100 scale (0 no effect, 100 complete control)
Procedure, shortened: as §1

kochia (Kochia scoparia) [11] = assay: Test A postemergence, visual plant response rating; conditions: for Kochia plant response rating (0 to 100 scale): 500 g ai/ha, postemergence, 0 is no effect, 100 is complete control; for Kochia plant response rating: Postemergence, 125 g ai/ha, 0 to 100 scale (0 no effect, 100 complete control)
Procedure, shortened: as §1

corn (Zea mays) = assay: Test A postemergence, visual plant response rating; conditions: for Corn plant response rating (0 to 100 scale): 500 g ai/ha, postemergence, 0 is no effect, 100 is complete control; for Corn plant response rating: Postemergence, 125 g ai/ha, 0 to 100 scale (0 no effect, 100 complete control)
Procedure, shortened: as §1

[12] = tested on: ragweed (common ragweed, Ambrosia elatior); assay: Test A postemergence, visual plant response rating; conditions: for Ragweed plant response rating (0 to 100 scale): 500 g ai/ha, postemergence, 0 is no effect, 100 is complete control; for Ragweed plant response rating: Postemergence, 125 g ai/ha, 0 to 100 scale (0 no effect, 100 complete control)
Procedure, shortened: as §1

[13] = tested on: barnyardgrass (Echinochloa crus-galli); assay: Test A postemergence, visual plant response rating; conditions: for Barnyardgrass plant response rating (0 to 100 scale): 500 g ai/ha, postemergence, 0 is no effect, 100 is complete control; for Barnyardgrass plant response rating: Postemergence, 125 g ai/ha, 0 to 100 scale (0 no effect, 100 complete control)
Procedure, shortened: as §1

[14] = tested on: wheat (Triticum aestivum); assay: Test A postemergence, visual plant response rating; conditions: for Wheat plant response rating (0 to 100 scale): 500 g ai/ha, postemergence, 0 is no effect, 100 is complete control; for Wheat plant response rating: Postemergence, 125 g ai/ha, 0 to 100 scale (0 no effect, 100 complete control)
Procedure, shortened: as §1

[15] = tested on: blackgrass (Alopecurus myosuroides); assay: Test A postemergence, visual plant response rating; conditions: for Blackgrass plant response rating (0 to 100 scale): 500 g ai/ha, postemergence, 0 is no effect, 100 is complete control; for Blackgrass plant response rating: Postemergence, 125 g ai/ha, 0 to 100 scale (0 no effect, 100 complete control)
Procedure, shortened: as §1

[16] = tested on: foxtail, giant (giant foxtail, Setaria faberii); assay: Test A postemergence, visual plant response rating; conditions: for Foxtail, Giant plant response rating (0 to 100 scale): 500 g ai/ha, postemergence, 0 is no effect, 100 is complete control; for Foxtail, Giant plant response rating: Postemergence, 125 g ai/ha, 0 to 100 scale (0 no effect, 100 complete control)
Procedure, shortened: as §1

[17] = tested on: pigweed (Amaranthus retroflexus); assay: Test A postemergence, visual plant response rating; conditions: for Pigweed plant response rating (0 to 100 scale): 500 g ai/ha, postemergence, 0 is no effect, 100 is complete control; for Pigweed plant response rating: Postemergence, 125 g ai/ha, 0 to 100 scale (0 no effect, 100 complete control)
Procedure, shortened: as §1

[18] = tested on: galium (catchweed bedstraw, Galium aparine); assay: Test A postemergence, visual plant response rating; conditions: for Galium plant response rating (0 to 100 scale): 500 g ai/ha, postemergence, 0 is no effect, 100 is complete control; for Galium plant response rating: Postemergence, 125 g ai/ha, 0 to 100 scale (0 no effect, 100 complete control)
Procedure, shortened: as §1

SMILES | Ryegrass, Italian plant response rating (0 to 100 scale) ([1]; 500 g ai/ha Preemergence) | Kochia plant response rating (0 to 100 scale) (kochia (Kochia scoparia) [2]; 500 g ai/ha Preemergence) | Ragweed plant response rating (0 to 100 scale) ([3]; 500 g ai/ha Preemergence) | Barnyardgrass plant response rating (0 to 100 scale) ([4]; 500 g ai/ha Preemergence) | Foxtail, Giant plant response rating (0 to 100 scale) ([5]; 500 g ai/ha Preemergence) | Pigweed plant response rating (0 to 100 scale) ([6]; 500 g ai/ha Preemergence) | Plant response rating, Ducksalad (0 to 100 scale, 0 is no effect, 100 is complete control) [7] | Plant response rating, Sedge, Umbrella (0 to 100 scale, 0 is no effect, 100 is complete control) [8] | Plant response rating, Rice (0 to 100 scale, 0 is no effect, 100 is complete control) (rice (Oryza sativa)) | Plant response rating, Barnyardgrass (0 to 100 scale, 0 is no effect, 100 is complete control) [9] | Ryegrass, Italian plant response rating (0 to 100 scale) [10] | Ryegrass, Italian plant response rating [10] | Kochia plant response rating (0 to 100 scale) (kochia (Kochia scoparia) [11]) | Kochia plant response rating (kochia (Kochia scoparia) [11]) | Corn plant response rating (0 to 100 scale) (corn (Zea mays)) | Corn plant response rating (corn (Zea mays)) | Ragweed plant response rating (0 to 100 scale) [12] | Ragweed plant response rating [12] | Barnyardgrass plant response rating (0 to 100 scale) [13] | Barnyardgrass plant response rating [13] | further results
CON=C(c1cccc(Cl)c1)c1c(O)c(C)nn(CC2CC2)c1=O (mixture of isomers) [Compound 4] | 30 | 0 | 0 | 70 | 50 | 0 | 0 | 0 | 0 | 0 | 0 | 0 | 0 | 0 | 0 | 0 | 0 | 0 | 0 | 0 | Ryegrass, Italian plant response rating (0 to 100 scale) ([1]; 125 g ai/ha Preemergence): 0; Kochia plant response rating (0 to 100 scale) (kochia (Kochia scoparia) [2]; 125 g ai/ha Preemergence): 0; Ragweed plant response rating (0 to 100 scale) ([3]; 125 g ai/ha Preemergence): 0; Barnyardgrass plant response rating (0 to 100 scale) ([4]; 125 g ai/ha Preemergence): 20; Foxtail, Giant plant response rating (0 to 100 scale) ([5]; 125 g ai/ha Preemergence): 0; Pigweed plant response rating (0 to 100 scale) ([6]; 125 g ai/ha Preemergence): 0; Wheat plant response rating (0 to 100 scale) [14]: 0; Wheat plant response rating [14]: 0; Blackgrass plant response rating (0 to 100 scale) [15]: 40; Blackgrass plant response rating [15]: 0; Foxtail, Giant plant response rating (0 to 100 scale) [16]: 0; Foxtail, Giant plant response rating [16]: 0; Pigweed plant response rating (0 to 100 scale) [17]: 0; Pigweed plant response rating [17]: 0; Galium plant response rating (0 to 100 scale) [18]: 0; Galium plant response rating [18]: 0
C=CCO/N=C(\c1c(O)c(C)nn(C)c1=O)c1ccc(F)c2ccccc12 [Compound 86] | 100 | 30 | 100 | 90 | 100 | 100 | 0 | 0 | 0 | 0 | 100 | 90 | 50 | 40 | 20 | 0 | 100 | 100 | 80 | 50 | Ryegrass, Italian plant response rating [1]: 100; Kochia plant response rating (kochia (Kochia scoparia) [2]): 20; Ragweed plant response rating [3]: 80; Barnyardgrass plant response rating [4]: 90; Foxtail, Giant plant response rating [5]: 100; Pigweed plant response rating [6]: 90; Wheat plant response rating (0 to 100 scale) [14]: 80; Wheat plant response rating [14]: 50; Blackgrass plant response rating (0 to 100 scale) [15]: 90; Blackgrass plant response rating [15]: 90; Foxtail, Giant plant response rating (0 to 100 scale) [16]: 80; Foxtail, Giant plant response rating [16]: 70; Pigweed plant response rating (0 to 100 scale) [17]: 80; Pigweed plant response rating [17]: 70; Galium plant response rating (0 to 100 scale) [18]: 100; Galium plant response rating [18]: 70
CO/N=C(\c1cccc(C)c1F)c1c(O)c(C)nn(C)c1=O [Compound 50] | 30 | 70 | 90 | 60 | 40 | 90 | 0 | 0 | 0 | 0 | 80 | 20 | 80 | 60 | 0 | 0 | 80 | 70 | 40 | 10 | Ryegrass, Italian plant response rating [1]: 30; Kochia plant response rating (kochia (Kochia scoparia) [2]): 10; Ragweed plant response rating [3]: 50; Barnyardgrass plant response rating [4]: 10; Foxtail, Giant plant response rating [5]: 0; Pigweed plant response rating [6]: 30; Wheat plant response rating (0 to 100 scale) [14]: 0; Wheat plant response rating [14]: 0; Blackgrass plant response rating (0 to 100 scale) [15]: 30; Blackgrass plant response rating [15]: 0; Foxtail, Giant plant response rating (0 to 100 scale) [16]: 70; Foxtail, Giant plant response rating [16]: 20; Pigweed plant response rating (0 to 100 scale) [17]: 90; Pigweed plant response rating [17]: 90; Galium plant response rating (0 to 100 scale) [18]: 70; Galium plant response rating [18]: 70
CON=C(c1cccc(C(F)(F)F)c1Cl)c1c(O)c(C)nn(C)c1=O [Compound 102] | 50 | 0 | 40 | 40 | 30 | 10 | 0 | 0 | 0 | 0 | 30 | 0 | 20 | 20 | 0 | 0 | 30 | 10 | 30 | 20 | Ryegrass, Italian plant response rating [1]: 20; Kochia plant response rating (kochia (Kochia scoparia) [2]): 0; Ragweed plant response rating [3]: 20; Barnyardgrass plant response rating [4]: 0; Foxtail, Giant plant response rating [5]: 0; Pigweed plant response rating [6]: 0; Wheat plant response rating (0 to 100 scale) [14]: 30; Wheat plant response rating [14]: 0; Blackgrass plant response rating (0 to 100 scale) [15]: 30; Blackgrass plant response rating [15]: 0; Foxtail, Giant plant response rating (0 to 100 scale) [16]: 30; Foxtail, Giant plant response rating [16]: 10; Pigweed plant response rating (0 to 100 scale) [17]: 40; Pigweed plant response rating [17]: 20; Galium plant response rating (0 to 100 scale) [18]: 70; Galium plant response rating [18]: 40
